Read-outs that look alike come from different tables or passages of the source.
Assays:
[1] = cited from earlier work
[2] = test system: popliteal and/or inguinal lymph node
[3] = macroscopic guidance of diagnostic procedures

Row | Structure (SMILES) | side effects for the patients [1, 3] | also measured
1 | CC1(C)C(/C=C/C=C/C=C/C=C2\N(CCCCS(=O)(=O)O)c3ccc4ccccc4c3C2(C)C)=[N+](CCCCS(=O)(=O)[O-])c2ccc3ccccc3c21 [ICG, Indocyanine green] | very limited side effects | 
2 | Cc1cc2nc3ccc(N(C)C)cc3[s+]c2cc1N.[Cl-] [TB, Toluidine Blue] | very limited side effects | time to macroscopically visible diffusion of dye to the lymph node ([2]; sub-cutaneous injection, 100 μL into footpad): 5 min
3 | CN(C)c1ccc2nc3ccc(=[N+](C)C)cc-3sc2c1 [MB, Methylene blue] | very limited side effects | time to macroscopically visible diffusion of dye to the lymph node ([2]; male, Wistar, rat, in vivo): 5 min
4 | Cc1cc(O)c2c(=O)c3c(O)cc(O)c4c5c(O)cc(O)c6c(=O)c7c(O)cc(C)c8c1c2c(c34)c(c78)c65 [hypericin, Hypericin] | very limited side effects | 
5 | CCN(CC)c1ccc(C(=C2C=CC(=[N+](CC)CC)C=C2)c2cc(O)c(S(=O)(=O)[O-])cc2S(=O)(=O)[O-])cc1.[Na+] [PB, sodium patent blue V] |  | time to macroscopically visible diffusion of dye to the lymph node ([2]; rat, in vivo): 5 min; side effects for the patients ([1]; human, in vivo): very limited side effects
